The results in this text go back to US7115658B2 (priority 2002, dated 2006).

T1 sequence (P26663 2420-3010): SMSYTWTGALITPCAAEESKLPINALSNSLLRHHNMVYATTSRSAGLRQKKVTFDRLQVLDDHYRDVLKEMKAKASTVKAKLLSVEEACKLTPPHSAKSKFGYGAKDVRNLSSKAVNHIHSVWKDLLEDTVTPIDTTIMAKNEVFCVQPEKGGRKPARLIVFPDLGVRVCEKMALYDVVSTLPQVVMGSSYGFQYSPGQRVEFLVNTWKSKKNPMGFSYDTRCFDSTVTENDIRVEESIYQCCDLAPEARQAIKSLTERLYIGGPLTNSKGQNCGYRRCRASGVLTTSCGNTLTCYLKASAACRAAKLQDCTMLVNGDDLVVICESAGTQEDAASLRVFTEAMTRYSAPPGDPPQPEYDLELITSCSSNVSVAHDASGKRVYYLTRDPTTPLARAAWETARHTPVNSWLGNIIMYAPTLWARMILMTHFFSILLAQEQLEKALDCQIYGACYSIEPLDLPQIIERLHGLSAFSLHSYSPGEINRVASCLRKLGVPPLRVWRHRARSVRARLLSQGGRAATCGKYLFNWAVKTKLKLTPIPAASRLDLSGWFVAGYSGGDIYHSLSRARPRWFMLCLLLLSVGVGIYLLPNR

This assay has as its target T1, Recombinant HCV polymerase (Hepatitis C virus genotype 1b, UniProt P26663).
T1 construct: 2.5 pmoles (0.15 μg) HCV polymerase protein
Put plainly: HCV Polymerase Inhibition Assay. The format is biochemical. To be noted: primer/template-directed transcription, 30 minutes at 30° C.; category symbol. The protocol:
The above-described compounds were tested for activity with HCV polymerase. Recombinant HCV polymerase was tested for its ability to perform primer/template-directed transcription in assays that contained 30 mM tris-HCl pH 7.2, 10 mM MgCl2, 20 mM NaCl, 1 mM Dithiothreitol (DTT), 0.05% Tween-20, 1% glycerol, 5 pmoles biotin-dG12 (primer), 0.5 pmoles poly(rC)300 (template), 1 μM GTP, 0.1–0.3 uCi α-^32P-GTP, and 2.5 pmoles (0.15 μg) HCV polymerase protein in a final volume of 75 μL. Reactions were initiated by addition of enzyme and incubated 30 minutes at 30° C. Reactions were stopped by addition of 33 mM EDTA, and polynucleotide products were collected by filtration through Diethylaminoethyl (DE) Filtermat papers (Wallac). Unincorporated triphosphate was removed by washing the filters with 5% dibasic sodium phosphate. The filters were counted in a Packard Tri-Lux Microbeta scintillation counter (Packard Bioscience, Meriden, Conn.). Compounds to be tested were added at various concentrations, e.g., 1 μm to 50 μm, from stocks in 10% DMSO-water (final DMSO is 1% in reaction).
IC50 values were estimated from the primary cpm data (collected in triplicate) using the formula: cpm (I)=cpm (no inhibitor)(1−([I]/([I]+IC50))). An IC50 value represents the concentration (in μM) of a compound that provides 50% inhibition of polymerase-directed transcription in the above assay. A percent inhibition value is expressed for a compound where it was impractical to calculate an IC50 value with available data. If the IC50 estimated by the above equation was less than 200 nM, it was recalculated using the following equation, which takes into account the enzyme concentration (30 nM) in the assay: cpm(I)=cpm(no inhibitor)(1−((((I+IC50+30e−9)−sqrt(((I+IC50+30e−9)^2)−4×30e−9×I)))/((2) (30e−9))). Curve fitting was performed using the program KaleidaGraph (Synergy Software, Reading, Pa.).
Usually IC50 stands for the concentration that gives 50% inhibition. “5-Trifluoromethyl-pyridine-2-sulfonic acid[5-tert-butyl-4-(6,6-dicyclopentyl-4-hydroxy-2-oxo-5,6-dihydro-2H-pyran-3-ylsulfanyl)-2-methyl-phenyl]-amide [Example 185]”: the IC50 was 10 to 50 µM. As for “6-Cyclopentyl-6-[2-(4-methoxy-phenyl)-ethyl]-3-[2-(3-methyl-isoxazol-5-yl)-acetyl]-dihydro-pyran-2,4-dione [Example 165]”, the figure is 10 to 50 µM; as for “6-[2-(3-Chloro-4-isopropoxy-phenyl)-ethyl]-6-cyclopentyl-3-(5,7-dimethyl-[1,2,4]triazolo[1,5-a]pyrimidin-2-ylsulfanyl)-4-hydroxy-5,6-dihydro-pyran-2-one [Example 129]”, less than 1 µM. For the molecule “6-[2-(3-Chloro-4-isopropoxy-phenyl)-ethyl]-6-cyclopentyl-4-hydroxy-3-(4-hydroxy-phenylsulfanyl)-5,6-dihydro-pyran-2-one [Example 130]”, the IC50 is less than 1 µM. As to “6-[2-(3-Chloro-4-isopropoxy-phenyl)-ethyl]-6-cyclopentyl-4-hydroxy-3-(4-methoxy-phenylsulfanyl)-5,6-dihydro-pyran-2-one [Example 131]”, the IC50 was less than 1 µM. Consider “6-[2-(3-Chloro-4-isopropoxy-phenyl)-ethyl]-6-cyclopentyl-4-hydroxy-3-(thiazol-2-ylsulfanyl)-5,6-dihydro-pyran-2-one [Example 132]”, for which the IC50 was less than 1 µM. In the case of `O=C1C=C(O)CC(CC2CCc3ccccc32)(C2CCCC2)O1` (mixture of isomers) [Example 15, 6-Cyclopentyl-4-hydroxy-6-indan-1-ylmethyl-5,6-dihydro-pyran-2-one], the IC50 is greater than 50 µM. Consider `CC(=O)Nc1cc(C(C)(C)C)c(SC2=C(O)CC(CCc3ccc(O)cc3)(C3CCCC3)OC2=O)cc1C` (racemic) [Example 140, (+/−)N-(5-tert-butyl-4-{6-cyclopentyl-4-hydroxy-6-[2-(4-hydroxy-phenyl)-ethyl]-2-oxo-5,6-dihydro-2H-pyran-3-ylsulfanyl}-2-methyl-phenyl)-acetamide], for which the IC50 was 1 to 10 µM. Turning to `O=C1CC(=O)OC(CCc2ccc(C(=O)N3CC[C@H](O)C3)cc2)(C2CCCC2)C1` (stereo in doubt) [Example 69, 6-Cyclopentyl-6-{2-[4-(3-hydroxy-pyrrolidine-1-carbonyl)-phenyl]-ethyl}-dihydro-pyran-2,4-dione], the IC50 fell in the range of 10 to 50 µM.

Regarding `O=C1CC(=O)OC(CCc2ccc(O)cc2)(C2CCCC2)C1` (centres unmarked) [Example 1, 6-Cyclopentyl-6-[2-(4-hydroxyphenyl)ethyl]dihydropyran-2,4-dione], the IC50 was 10 to 50 µM. Regarding `O=C1CC(=O)OC(CCc2cccc3ccccc23)(C2CCCC2)C1` (centres unmarked) [Example 2, 6-Cyclopentyl-6-(2-napthalen-1-ylethyl)dihydropyran-2,4-dione], the IC50 is greater than 50 µM. In the case of `COc1ccccc1CCC1(C2CCCC2)CC(=O)CC(=O)O1` (centres unmarked) [Example 4, 6-Cyclopentyl-6-[2-(2-methoxyphenyl)ethyl]dihydropyran-2,4-dione], the IC50 lay within 10 to 50 µM. With `C=CCOCc1ccccc1CCC1(C2CCCC2)CC(=O)CC(=O)O1` (centres unmarked) [Example 5, 6-[2-(2-Allyloxymethylphenyl)ethyl]-6-cyclopentyldihydropyran-2,4-dione], the IC50 fell in the range of 10 to 50 µM. With `O=C1CC(=O)OC(CCc2ccccc2CO)(C2CCCC2)C1` (centres unmarked) [Example 6, 6-Cyclopentyl-6-[2-(2-hydroxymethylphenyl)ethyl]dihydropyran-2,4-dione], the IC50 lay in the range of 10 to 50 µM.

As for `COc1ccc(CCC2(C3CCCC3)CC(=O)CC(=O)O2)c(C#N)c1` (centres unmarked) [Example 7, 2-[2-(2-Cyclopentyl-4,6-dioxo-tetrahydro-pyran-2-yl)-ethyl]-5-methoxy-benzonitrile], the IC50 fell in the range of 10 to 50 µM. For `COc1ccc(CCC2(C3CCCC3)CC(=O)CC(=O)O2)cn1` (centres unmarked) [Example 8, 6-cyclopentyl-6-[2-(6-methoxypyridin-3-yl)ethyl]dihydro-2H-pyran-2,4(3H)-dione], the IC50 fell in the range of 10 to 50 µM. As for `CC(C)c1cccc(CCC2(C3CCCC3)CC(=O)CC(=O)O2)c1` (centres unmarked) [Example 9, 6-Cyclopentyl-6-[2-(3-isopropyl-phenyl)-ethyl]-dihydro-pyran-2,4-dione], the figure is 1 to 10 µM. Take `COC(=O)Cc1ccc(CCC2(C3CCCC3)CC(=O)CC(=O)O2)cc1` (centres unmarked) [Example 10, {4-[2-(2-Cyclopentyl-4,6-dioxo-tetrahydro-pyran-2-yl)-ethyl]-phenyl}-acetic acid methyl ester]: the IC50 lay in the range of 10 to 50 µM. `CC(C)(C)c1cccc(CCC2(C3CCCC3)CC(=O)CC(=O)O2)c1` (centres unmarked) [Example 11, 6-[2-(3-tert-butyl-phenyl)-ethyl]-6-cyclopentyl-dihydro-pyran-2,4-dione]: the IC50 lay in the range of 1 to 10 µM.

`O=C1CC(=O)OC(CCc2nccs2)(C2CCCC2)C1` (centres unmarked) [Example 12, 6-Cyclopentyl-6-(2-thiazol-2-yl-ethyl)-dihydro-pyran-2,4-dione]: the IC50 was greater than 50 µM. Turning to `CC(C)(C#N)c1cccc(CCC2(C3CCCC3)CC(=O)CC(=O)O2)c1` (centres unmarked) [Example 13, 2-{3-[2-(2-Cyclopentyl-4,6-dioxo-tetrahydro-pyran-2-yl)-ethyl]-phenyl}-2-methyl-propionitrile], the IC50 was in the range of 1 to 10 µM. As for `CC(C)(C)OC(=O)NCC(C)(C)c1cccc(CCC2(C3CCCC3)CC(=O)CC(=O)O2)c1` (centres unmarked) [Example 14, (2-{3-[2-(2-Cyclopentyl-4,6-dioxo-tetrahydro-pyran-2-yl)-ethyl]-phenyl}-2-methyl-propyl)-carbamic acid tert-butyl ester], the IC50 lay within 10 to 50 µM. In the case of `COc1cccc(CCC2(C3CCCC3)CC(O)=CC(=O)O2)c1` (centres unmarked) [Example 16, 6-Cyclopentyl-4-hydroxy-6-[2-(3-methoxy-phenyl)-ethyl]-5,6-dihydropyran-2-one], the IC50 was 10 to 50 µM. Regarding `CC(=O)c1ccc(CCC2(C3CCCC3)CC(O)=CC(=O)O2)cc1C` (centres unmarked) [Example 17, 6-[2-(4-Acetyl-3-methyl-phenyl)-ethyl]-6cyclopentyl-4-hydroxy-5,6-dihydro-pyran-2-one], the IC50 was 1 to 10 µM. As to `Cc1cc(CCC2(C3CCCC3)CC(O)=CC(=O)O2)ccc1C1(C)OCCO1` (centres unmarked) [Example 18, 6-Cyclopentyl-4-hydroxy-6-{2-[3-methyl-4-(2-methyl-1,3-dioxolan-2-yl)-phenyl]-ethyl}-5,6-dihydro-pyran-2-one], the IC50 lay within 1 to 10 µM.

With `COc1cc(CCC2(C3CCCC3)CC(O)=CC(=O)O2)ccc1O` (centres unmarked) [Example 19, 6-Cyclopentyl-4-hydroxy-6-[2-(4-hydroxy-3-methoxy-phenyl)-ethyl]-5,6-dihydro-pyran-2-one], the IC50 was in the range of 1 to 10 µM.

For `COc1cc(CCC2(C3CCCC3)CC(O)=CC(=O)O2)ccc1OCc1ccccc1` (centres unmarked) [Example 20, 6-[2-(4-Benzyloxy-3-methoxy-phenyl)-ethyl]-6-cyclopentyl-4-hydroxy-5,6-dihydro-pyran-2-one], the IC50 is 1 to 10 µM. As for `O=C1C=C(O)CC(CCCc2ccccc2)(C2CCCC2)O1` (centres unmarked) [Example 21, 6-Cyclopentyl-4-hydroxy-6-(3-phenyl-propyl)-5,6-dihydro-pyran-2 one], the figure is greater than 50 µM; as for `O=C1C=C(O)CC(CCCC2CCCCC2)(C2CCCC2)O1` (centres unmarked) [Example 22, 6-(3-Cyclohexyl-propyl)-6-cyclopentyl-4-hydroxy-5,6-dihydro-pyran-2-one], 10 to 50 µM. As for `O=C1CC(=O)OC(CCc2ccc3c(c2)OCO3)(C2CCCC2)C1` (centres unmarked) [Example 23, 6-(2-Benzo[1,3]dioxol-5-yl-ethyl)-6-cyclopentyl-dihydro-pyran-2,4-dione], the figure is 10 to 50 µM; as for `CCOc1cccc(CCC2(C3CCCC3)CC(=O)CC(=O)O2)c1` (centres unmarked) [Example 24, 6-Cyclopentyl-6-[2-(3-ethoxy-phenyl)-ethyl]-dihydro-pyran-2,4-dione], 1 to 10 µM; as for `CCOc1ccc(CCC2(C3CCCC3)CC(=O)CC(=O)O2)cc1` (centres unmarked) [Example 25, 6-Cyclopentyl-6-[2-(4-ethoxy-phenyl)-ethyl]-dihydro-pyran-2,4-dione], 1 to 10 µM. As to `O=C1CC(=O)OC(CCc2cccc(Cl)c2)(C2CCCC2)C1` (centres unmarked) [Example 26, 6-[2-(3-Chloro-phenyl)-ethyl]-6-cyclopentyl-dihydro-pyran-2,4-dione], the IC50 was in the range of 1 to 10 µM. Take `COc1ccc(CCC2(C3CCCC3)CC(=O)CC(=O)O2)cc1Cl` (centres unmarked) [Example 27, 6-[2-(3-Chloro-4-methoxy-phenyl)-ethyl]-6-cyclopentyl-dihydro-pyran-2,4-dione]: the IC50 was 1 to 10 µM. For the molecule `CS(=O)(=O)c1ccc(CCC2(C3CCCC3)CC(=O)CC(=O)O2)cc1` (centres unmarked) [Example 28, 6-Cyclopentyl-6-[2-(4-methanesulfonyl-phenyl)-ethyl]-dihydro-pyran-2,4-dione], the IC50 fell in the range of 1 to 10 µM.
